This passage reports melting point results from a melting point compilation (Tetko et al.; mined from patent text by program, amines drawn as free bases though some values may be those of a salt).

Take `CC(C)(C)c1cc(CCc2nsc(=O)o2)cc(C(C)(C)C)c1O`: the melting point lay within 82 to 86 °C. As for `COC(=O)Cc1ccc(CNC(=O)C2Cc3c(OC)cccc3N2S(=O)(=O)c2ccc(-c3cccc(C(F)(F)F)c3)cc2)cc1` (configuration not stated), the figure is 80 °C; as for `CCCCCCCCCCCCCCc1ccc(CC)c(O)c1`, 59 to 60 °C. For `Cc1c(C(=O)Nc2ccc(N3CCCCC3)c(C#N)c2)cnn1C`, the melting point lay within 217 to 218 °C. The value for `CCOP(=O)(Cc1cc2c(cc1CP(=O)(OCC)OCC)C(CC)(CC)N(Cc1ccccc1)C2(CC)CC)OCC` was 81 to 83 °C; that for `c1ccc2c(c1)Oc1ccccc1C2NCc1ccncc1` was 83 to 85 °C. For `C/C(=C(\C#N)C(N)=S)N1CCCN(c2cccc(Cl)c2)CC1`, the melting point lay in the range of 133 to 134 °C. As for `CC1(C)Oc2ccc(C#N)cc2C(Oc2ccnnc2)C1(C)O` (configuration not stated), the figure is 103 to 105 °C; as for `Cn1c(=O)c2c(nc(Cl)n2Cc2ccccc2)n(C)c1=O`, 146 to 147 °C. In turn, `CNc1nc(-c2ccc(Cl)c(Cl)c2)ncc1N(C)C(=O)N1CCOCC1` came in with a melting point of 227 °C. As for `COCOc1cc(OC)cc(C)c1C(=O)c1ccc(OCc2ccccc2)cc1`, the figure is 49 to 50 °C; as for `Cc1ccnc(C)c1Cn1nnnc1-c1cccc(Cl)c1Cl`, 146 to 148 °C; as for `CCOc1ccc(Nc2n[nH]c(N)c2C#N)cc1`, 166 to 167 °C. The value for `CC(C)c1cccc(-c2ccc(F)cc2)c1/C=C/CO` was 71 to 72 °C; that for `O=C(O)c1cc2ccccc2c(Cl)c1O` was 234 to 235 °C. The value for `CN(Cc1ccc2c(Br)c(O)ccc2c1)C(=O)c1oc2ccccc2c1CCc1ccccc1` was 108 to 110 °C; that for `COc1cc(CN2CCN(c3ccc(C(=O)NC4CC4)cc3Cl)CC2)cc2c1OC(C)C(=O)N2` (configuration not stated) was 226 °C.

Compound `CCCc1nc2cc(CC(=O)O)ccc2o1` yielded a melting point of 67 to 68 °C. `COc1ccc2cc([C@H](C)C(=O)OCC(=O)N(C)CC(=O)OCCCO[N+](=O)[O-])ccc2c1` returned a melting point of 41 to 43 °C. The value for `CCCCCc1cc2cc(O)ccc2c(Oc2ccc(/C=C/C(=O)O)cc2)c1-c1ccccc1` was 110 to 113 °C; that for `CCCCc1ncc(C=C2C(=O)NC(=O)N2Cc2ccc(Cl)cc2)n1Cc1ccc(C(=O)O)cc1` was 225 to 227 °C; that for `CC(C#Cc1cc2ccccc2s1)N(O)C(N)=O` (configuration not stated) was 168 to 169 °C. The value for `O=S(=O)(Nc1ccc(Cl)cc1-c1cc(-c2ccc(F)cc2F)on1)C(F)(F)F` was 117 to 119 °C; that for `O=C(NCCc1ccc(O)cc1)OCc1ccccc1` was 96 to 98 °C; that for `CCOc1cc(C(=O)NC2CC(C)(C)NC(C)(C)C2)ccc1-c1nc2cc(Cl)c(Cl)cc2[nH]1` was more than 280 °C. As for `CCOC(=O)c1ncn2c1[C@@H]1CCCN1C(=O)c1cc(Cl)ccc1-2`, the figure is 242 to 244 °C; as for `N#Cc1c(SC(F)(F)F)c(N)n(-c2ccc(C(F)(F)F)cc2)c1Br`, 152 °C; as for `CN1CCC(Oc2ccc(Cl)cc2)(c2ccccc2)C(O)C1` (configuration not stated), 164 to 165 °C.

Compound `Cc1onc(NS(=O)(=O)c2ccccc2-c2ccc(-c3ncco3)cc2CN2CCC(C)(C)C2=O)c1C` had a melting point of 110 to 117 °C. The value for `Cc1c(=O)n(Cc2ccc(C#N)cc2)c(=O)n2cc(C(=O)NCc3ccc(F)cc3)sc12` was more than 220 °C; that for `CCOC(=O)COc1ccc(C(=O)c2ccc(O)cc2)c(Cl)c1Cl` was 127 to 129 °C; that for `C=CC(=O)NC(CCC(=O)O)C(=O)O` (configuration not stated) was 125 to 127 °C. As for `Nc1nc2cc(Cl)c(Cl)cc2n1C1OC(CO)C(O)C1O` (configuration not stated), the figure is 145 °C.

Compound `O=C(O)CCCCc1cccn2cncc12` came in with a melting point of 195 to 197 °C. As to `O=C(O)c1cccc2c1[nH]c1ccc(F)cc12`, the melting point was found to be 254 °C. As for `CN(C)CCC(=O)n1cc(-c2ccccc2)c2ccccc21`, the figure is 137 to 138 °C; as for `CNC(=O)N1CC(Oc2ccccc2C(N)=O)C1`, 236 to 240 °C; as for `CCc1cccc(CC(=O)O)c1OCCCc1cn(-c2ccc(C(F)(F)F)nn2)nc1C(C)C`, 126 to 127 °C.

Compound `CCOC(=O)N1CCN(c2ccncc2[N+](=O)[O-])CC1` had a melting point of 101 to 103 °C.

As to `CCOC(=O)c1csc(C2OC(COC(=O)c3ccccc3)C(O)C2O)n1` (configuration not stated), the melting point lay within 82 to 85 °C. On to `Nc1cccc2c1NC(=O)C2`, for which the melting point lay in the range of 248 to 251 °C.

On to `CCC(NC(=O)CC(F)(F)F)c1ccc(Cl)c2nc3n(c12)CCCN3c1ccc(Cl)cc1Cl` (configuration not stated), for which the melting point fell in the range of 285 to 290 °C. As for `O=C(CCCCCl)c1c[nH]c2ccccc12`, the figure is 165 to 167 °C; as for `Cc1cccc(NC(=O)NCc2cccc3c2C(=O)N(C2CCC(=O)NC2=O)C3=O)c1` (configuration not stated), more than 260 °C. With `CCCCNS(=O)(=O)c1ccc(N2CCC3(CC2)OCCO3)cc1`, the melting point lay within 122 to 124 °C. `COc1ccc(CNc2nc(N)nc3c2ncn3C2CC(F)C(CO)O2)cc1` (configuration not stated) showed a melting point of 194 to 195 °C. Consider `Cc1ccccc1CC(=NC#N)NC(NC(=O)Cc1cccc2ccccc12)C(C)(C)C` (configuration not stated), for which the melting point fell in the range of 97 to 100 °C. As for `N#Cc1ccc(N2CCN(Cc3cnc4c(c3)NC(=O)[C@@H]3CCCN43)CC2)nc1`, the figure is 252 to 256 °C; as for `COC(=O)CN(N)CC(=O)OC`, 166 °C. As for `CS(=O)(=O)c1ccc(-c2cnn(-c3ccc(Cl)c(F)c3)c(=O)c2-c2ccc(F)cc2)cc1`, the figure is 102 to 110 °C; as for `COCCOc1cc2c(Nc3ccc(Sc4nccn4C)c(Cl)c3)c(C#N)cnc2cc1OCCCN(C)C`, 194 to 203 °C; as for `COC(=O)CNc1cccc(CF)c1`, 47 to 47.5 °C. In turn, `O=C1NN=C(c2ccc3[nH]c(-c4ccncc4)cc3c2)CO1` showed a melting point of 322 to 325 °C. As for `Cc1cc(C(=O)c2ccccc2)ccc1NC(=O)C(C)(O)C(F)(F)F` (configuration not stated), the figure is 123 to 124 °C. Turning to `C=C1[C@H](O)C[C@H](O[Si](C)(C)C(C)(C)C)[C@H]1CO[Si](C)(C)C(C)(C)C`, the melting point is 64 to 66 °C.

Turning to `COC(=O)c1cc(NCc2c(F)c(F)c(C(F)(F)F)c(F)c2F)ccc1O`, the melting point turned out to be 127 °C. `CCCCc1nc2c(=O)n(Cc3ccc(-c4ccccc4C#N)cc3)ccc2n1Cc1ccc(-c2ccccc2C#N)cc1`: the melting point is 83 °C. As for `Cc1ccc(-n2c(=O)n(OCc3ccccc3)c(=O)c3cc(F)c(N4CCCC4)nc32)cc1`, the figure is 192 to 194 °C; as for `CCOC(=O)c1c(Cn2ccccc2=O)nc2cc(OC)c(OC)cc2c1-c1ccc(OC)c(OC)c1`, 154 to 156 °C.

In turn, `CC(C)(C)OC(=O)N[C@@H](Cc1ccccc1)C(=O)NC1CCC(Nc2cccc3c2C(=O)c2ccccc2C3=O)CC1` (some centres not stated) gave a melting point of 142 °C. As for `CCOC(=O)Cc1cc(C(=O)OC)ccc1NC(C)=O`, the figure is 119 °C. Turning to `COc1nc(C)c(C)nc1NC(=O)N1CCN(c2ccccc2C(C)C)CC1`, the melting point was 165 to 167 °C.

A word on the melting point: it is the temperature, or range, at which the solid turns liquid.
